# Data from US6939550B2, “Stabilized antihistamine syrup” (Schering Corporation, priority 1998, dated 2005).
# Like-named read-outs stand apart in the source and are kept apart here.
# What was measured:
# [1] = Test of common antioxidant additives incorporated into the syrup
# Experimental: Another test was conducted, wherein common antioxidant additives were incorporated into the syrup. Ideally, the antioxidant will be soluble in the syrup and is safe for use in foods and pharmaceutical preparations.
# [2] = Accelerated storage stability of syrups in sealed vials at 55° C., analysis by HPLC; format: physicochemical; conditions: severe storage conditions of the test (55° C.)
# Experimental: This level can be readily determined by means of an accelerated storage stability test, in which packages of the final product are stored at elevated temperatures above the usual storage temperatures to which the product is expected to be exposed; the present inventors have used temperatures up to 55° C. for this purpose, although such temperatures tend to cause a minor discoloration (darkening) of the syrups, probably due to some carmelization of the contained sucrose. It is expected that most drug degradation reactions will be accelerated by the elevated temperature. At predetermined intervals, some of the packages are opened and analyzed to determine the amount of active ingredients and impurities present in the formulation.
# Twenty five mL portions of the two syrups are placed into 50 mL flint glass vials, then sealed with rubber stoppers and aluminum caps. The sealed vials are stored at 55° C. until their removal and analysis by high performance liquid chromatography.
# Sample A from the preceding example and similarly prepared syrups which also contain 0.1, 0.25, 0.5 or 0.75 mg/mL of disodium EDTA are packaged as in the prior example, and stored and tested similarly.
compound,measurement,setting,value
O=C1O[C@H]([C@@H](O)CO)C(O)=C1O [ascorbic acid],color change in the product,[1]; additive at 0.1 and 1 mg/mL in the syrup,unacceptable strong color change
O=S([O-])O.[Na+] [sodium bisulfite],odor imparted to the syrup,[1]; additive in the syrup,"pungent, disagreeable odor"
Cc1cc(C(C)(C)C)c(O)c(C(C)(C)C)c1 [butylated hydroxytoluene],solubility in the syrup,[1],not soluble
tocopherol,solubility in the syrup,[1]; oil-soluble antioxidants,not soluble
"O=C(O)CN(CCN(CC(=O)O)CC(=O)O)CC(=O)O [EDTA, ethylenediaminetetraacetic acid]",inhibition of the degradation of loratadine,[2],significant inhibition
